Changes are numbered by the printed parent chain.
What was measured:
[1] = target: T1, rP2 × 2R (Rattus norvegicus, UniProt P49653); settings: NEM treatment + Zn(II) group; control before treatment (first ATP curve)
T1 sequence (P49653 1-472): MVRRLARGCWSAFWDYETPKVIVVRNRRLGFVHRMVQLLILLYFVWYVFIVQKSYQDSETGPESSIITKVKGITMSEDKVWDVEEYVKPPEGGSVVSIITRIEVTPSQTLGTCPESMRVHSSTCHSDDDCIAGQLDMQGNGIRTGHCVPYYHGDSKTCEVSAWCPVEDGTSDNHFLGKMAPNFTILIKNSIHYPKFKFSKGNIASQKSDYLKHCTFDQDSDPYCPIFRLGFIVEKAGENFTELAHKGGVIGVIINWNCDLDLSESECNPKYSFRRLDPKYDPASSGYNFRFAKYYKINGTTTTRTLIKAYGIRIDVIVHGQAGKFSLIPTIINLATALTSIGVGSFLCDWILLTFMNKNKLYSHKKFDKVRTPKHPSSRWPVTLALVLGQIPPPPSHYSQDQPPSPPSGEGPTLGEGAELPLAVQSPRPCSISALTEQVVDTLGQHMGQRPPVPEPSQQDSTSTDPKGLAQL

[2] = target: T1, rP2 × 2R; assay: cell-based
[3] = target: T2, rP2 × 4R E118Q mutant (Rattus norvegicus, UniProt P51577, E118Q); assay: ATP concentration–response curves, voltage clamp, E118Q mutant; format: cell-based; settings: 10 µM Zn(II)
T2 construct: host or cells: Xenopus laevis oocytes
T2 sequence (P51577 1-388 E118Q): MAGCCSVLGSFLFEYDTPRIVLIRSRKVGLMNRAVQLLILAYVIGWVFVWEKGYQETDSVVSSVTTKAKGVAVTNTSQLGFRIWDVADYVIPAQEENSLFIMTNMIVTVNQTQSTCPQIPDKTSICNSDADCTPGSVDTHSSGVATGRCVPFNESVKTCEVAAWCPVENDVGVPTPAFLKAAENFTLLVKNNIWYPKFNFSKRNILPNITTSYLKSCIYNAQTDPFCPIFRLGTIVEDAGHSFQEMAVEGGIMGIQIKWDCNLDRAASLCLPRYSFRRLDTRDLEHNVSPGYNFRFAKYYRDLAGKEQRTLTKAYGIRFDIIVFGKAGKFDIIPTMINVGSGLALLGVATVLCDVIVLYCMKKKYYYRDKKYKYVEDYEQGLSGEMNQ

[4] = target: T3, rP2 × 4R (Rattus norvegicus, UniProt P51577); assay: Short protocol: Zn(II) potentiation of single 10 µM ATP-evoked currents before/after thiol reagent treatment, rP2 × 4R oocytes; format: cell-based; settings: for fold increase of ATP-evoked currents by Zn(II): 10 µM ATP
T3 construct: host or cells: Xenopus laevis oocytes (intranuclear plasmid injection, pcDNA3)
T3 sequence (P51577 1-388): T2 sequence (P51577 1-388 E118Q) with Q118E
Experimental: (§1) A simpler and shorter assay to test the Zn(II) potentiation was developed to better assess the loss of Zn(II) modulation elicited by the joint co-treatment of NEM plus Zn(II). […] Ten minutes after alkylator washout, cells were treated with Zn(II) plus NEM or iodoacetamide (IA) for 5 min followed by 20 min of alkylator washout. Next, the P2 × R was tested again to examine the magnitude of the Zn(II) potentiation.
(§2) After 10 min of washout we applied 300 µM NEM, 300 µM IA, 300 µM IAc, or 300 µM DTNB for 5 min in absence or presence of Zn(II) (10 µM for rP2 × 4R and 30 µM for rP2 × 2R).
After 10 min of washout we applied 300 µM NEM + 10 µM DTT.

[5] = target: T1, rP2 × 2R; assay: Short protocol: Zn(II) potentiation of single 10 µM ATP-evoked currents before/after thiol reagent treatment, rP2 × 2R oocytes; format: cell-based; set-up: expressed in transfected cells; host or cells: Xenopus laevis oocytes (intranuclear plasmid injection); settings: for times potentiation of ATP-evoked currents by Zn(II): 30 µM Zn(II)
Experimental: as §1, §2

[6] = target: T1, rP2 × 2R; set-up: expressed in transfected cells; host or cells: Xenopus laevis oocytes (intranuclear plasmid injection); method as in PMID 10737610, PMID 10188989, PMID 10322050, PMID 8622997; settings: P2 × 2R; cited from earlier work

SMILES: Nc1ncnc2c1ncn2[C@@H]1O[C@H](COP(=O)(O)OP(=O)(O)OP(=O)(O)O)[C@@H](O)[C@H]1O [ATP, adenosine triphosphate]
- Imax [1]: 26.7 ± 3.5 µA
- EC50 ([2]; ATP EC50, NEM treatment + Zn(II) group, control before treatment (first ATP curve)): 39.9 ± 8.3 µM
- EC50 ([2]; ATP EC50, NEM treatment + vehicle group, control before treatment (first ATP curve)): 67.7 ± 13.3 µM
- EC50 ([2]; ATP EC50, after 300 µM NEM + 30 µM Zn(II) treatment, control = ATP curve after treatment): 33 ± 7.4 µM
- EC50 ([2]; ATP EC50, after 300 µM NEM + vehicle treatment, control = ATP curve after treatment): 35 ± 9.2 µM
- EC50 ([2]; ATP EC50, vehicle treatment, Figure 1D, without Zn(II)): 56.4 ± 7.4 µM

SMILES: [Cl-].[Cl-].[Zn+2] [Zn(II), zinc chloride (ZnCl2)]
- fold leftward shift of ATP concentration–response curve by Zn(II) [3]: 13.6 fold
- fold increase of ATP-evoked currents by Zn(II) ([4]; 10 µM Zn(II), after 300 µM NEM plus 10 µM Zn(II) incubation): 1.3 ± 0.2 fold
- fold increase of ATP-evoked currents by Zn(II) ([4]; 10 µM Zn(II), after 300 µM NEM treatment (no Zn(II)) and washout): 1.6 ± 0.2 fold
- fold increase of ATP-evoked currents by Zn(II) ([4]; 10 µM Zn(II), before NEM plus Zn(II) incubation): 2.4 ± 0.3 fold
- fold increase of ATP-evoked currents by Zn(II) ([4]; 10 µM Zn(II), before NEM treatment): 1.8 ± 0.1 fold
- fold potentiation of ATP-evoked currents by Zn(II) ([4]; 10 µM Zn(II), before 10 µM DTT + 300 µM NEM treatment): 2.0 ± 0.2 fold
- ATP plus Zn(II) current after DTT plus NEM treatment, fold for the first ATP application ([4]; 10 µM Zn(II), no potentiation by Zn(II) observed): 2.4 ± 0.7 fold
- fold potentiation of 10 µM ATP-evoked currents by Zn(II) ([4]; 10 µM Zn(II), prior to any treatments): ~2 fold
- fold Zn(II)-induced potentiation of ATP-evoked currents ([4]; after 300 µM DTNB plus 10 µM Zn(II) treatment): 2.1 ± 0.4 fold
- fold Zn(II)-induced potentiation of ATP-evoked currents ([4]; after 300 µM IAc plus 10 µM Zn(II) treatment): 2.4 ± 0.7 fold
- reversibility of the metal effect ([4]; after 10 min washout initial 10 µM ATP-gated current fully recovered): reversible
- fold Zn(II)-induced potentiation of ATP-evoked currents ([4]; before DTNB plus Zn(II) treatment): 1.9 ± 0.3 fold
- fold Zn(II)-induced potentiation of ATP-evoked currents ([4]; before IAc plus Zn(II) treatment): 2.2 ± 0.2 fold
- times potentiation of ATP-evoked currents by Zn(II) ([5]; before IA + Zn(II) treatment, Figure 2F): 8.3 ± 4.0 times
- times potentiation of ATP-evoked currents by Zn(II) ([5]; before NEM + Zn(II) treatment, Figure 2E): 11.4 ± 2.0 times
- Zn(II) concentration potentiating the ATP-evoked currents ([5]; co-application with ATP, Figure S1 right): 30 to 300 µM
- fold leftward displacement of the ATP concentration–response curve by Zn(II) [6]: 5 fold

Source: publication PMC7555825, “New Insights of the Zn(II)-Induced P2 × 4R Positive Allosteric Modulation: Role of Head Receptor Domain SS2/SS3, E160 and D170” (International Journal of Molecular Sciences, 2020)
